According to ChEMBL document CHEMBL4622935, “Novel anticancer drug curaxin CBL0137 impairs DNA methylation by eukaryotic DNA methyltransferase Dnmt3a” (Bioorg Med Chem Lett, 2020):

Assays:
[1] = molecular target: DNA (cytosine-5)-methyltransferase 3A (Homo sapiens, UniProt Q9Y6K1); experiment: Binding affinity to DNMT3A catalytic domain (unknown origin) assessed as inhibition of enzyme-mediated DNA methylation preincubated for 1 hr followed by enzyme addition measured after 1 hr in presence of AdoMet by PAGE analysis
[2] = molecular target: DNA (cytosine-5)-methyltransferase 3A (Mus musculus) (UniProt O88508); experiment: Inhibition of murine DNMT3A catalytic domain-mediated DNA methylation using 5'-6FAM-tagged 30-mer duplex DNA (17 AT bp) as substrate at 60 uM preincubated for 30 mins followed by enzyme addition relative to control
[3] = molecular target: T1, DNA (cytosine-5)-methyltransferase 3A (Mus musculus, UniProt O88508); experiment: Inhibition of murine DNMT3A catalytic domain-mediated DNA methylation using 5'-6FAM-tagged 30-mer duplex DNA (17 AT bp) as substrate preincubated for 30 mins followed by enzyme addition
[4] = molecular target: DNA (cytosine-5)-methyltransferase 3A (Mus musculus) (UniProt O88508); experiment: Inhibition of murine DNMT3A catalytic domain-mediated DNA methylation using 5'-6FAM-tagged 30-mer duplex DNA (22 AT bp) as substrate at 60 uM preincubated for 30 mins followed by enzyme addition relative to control
[5] = molecular target: DNA (cytosine-5)-methyltransferase 3A (Mus musculus) (UniProt O88508); experiment: Binding affinity to murine DNMT3A catalytic domain assessed as fold reduction in compound fluorescence at 5 uM by dialysis method relative to control
DNA [6] = experiment: Binding affinity to 5'-6FAM-tagged 30-mer duplex DNA (17 AT bp) (unknown origin) assessed as dissociation constant for complound-DNA complex by fluorescence polarization assay; format: nucleic-acid assay
DNA [7] = experiment: Binding affinity to 5'-6FAM-tagged 30-mer duplex DNA (22 AT bp) (unknown origin) assessed as dissociation constant for complound-DNA complex by fluorescence polarization assay; format: nucleic-acid assay
[8] = molecular target: T1, DNA (cytosine-5)-methyltransferase 3A; experiment: Inhibition of murine DNMT3A catalytic domain-mediated DNA methylation using 5'-6FAM-tagged 30-mer duplex DNA (22 AT bp) as substrate preincubated for 30 mins followed by enzyme addition

DNA (cytosine-5)-methyltransferase 3A (Homo sapiens, UniProt Q9Y6K1), sequence (Q9Y6K1 whole entry, looked up, the tested form may be a part): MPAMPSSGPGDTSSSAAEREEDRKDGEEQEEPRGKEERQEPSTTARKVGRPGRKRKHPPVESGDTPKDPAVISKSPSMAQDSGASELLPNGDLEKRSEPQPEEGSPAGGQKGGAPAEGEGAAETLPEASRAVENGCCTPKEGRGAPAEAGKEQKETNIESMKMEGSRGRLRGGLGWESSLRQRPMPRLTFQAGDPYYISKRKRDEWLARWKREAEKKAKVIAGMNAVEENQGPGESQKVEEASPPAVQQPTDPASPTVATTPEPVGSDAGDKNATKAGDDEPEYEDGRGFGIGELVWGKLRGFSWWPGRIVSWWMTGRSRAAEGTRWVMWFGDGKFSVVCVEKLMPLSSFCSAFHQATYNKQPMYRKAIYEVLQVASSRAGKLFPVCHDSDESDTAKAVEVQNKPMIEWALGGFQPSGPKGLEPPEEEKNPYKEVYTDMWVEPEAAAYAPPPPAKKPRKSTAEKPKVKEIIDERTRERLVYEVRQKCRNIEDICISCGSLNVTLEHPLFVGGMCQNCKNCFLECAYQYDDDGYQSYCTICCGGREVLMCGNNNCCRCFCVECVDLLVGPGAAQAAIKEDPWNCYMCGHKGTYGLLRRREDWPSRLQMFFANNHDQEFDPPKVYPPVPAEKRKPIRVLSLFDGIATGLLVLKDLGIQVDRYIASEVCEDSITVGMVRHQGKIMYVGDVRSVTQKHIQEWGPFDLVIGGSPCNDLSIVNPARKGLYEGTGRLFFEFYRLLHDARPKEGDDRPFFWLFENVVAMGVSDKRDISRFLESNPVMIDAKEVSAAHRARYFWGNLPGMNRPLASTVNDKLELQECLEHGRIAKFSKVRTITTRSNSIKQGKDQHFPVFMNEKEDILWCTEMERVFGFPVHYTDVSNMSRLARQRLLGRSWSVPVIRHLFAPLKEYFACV

inhibition [2] [%]	IC50 [3] [µM]	inhibition [4] [%]	fold change (FC) [5]	Kd (DNA [6]) [µM]	Kd (DNA [7]) [µM]	IC50 [8] [µM]	SMILES	IC50 [1] [µM]
							CCC1/C=C/C=C/C[C@H](C)[C@@H](O)[C@](C)(O)C(=O)[C@@H](C)[C@H](O)[C@@H](C)C(=O)[C@H](C)[C@@H](O)[C@H](C)/C=C/C(=O)OC2[C@@H](C)C(CC1)OC1(CC[C@@H](C)C(C[C@H](C)O)O1)[C@@H]2C (stereo not given in full)	6
70	3						COc1cccc2c1C(=O)c1c(O)c3c(c(O)c1C2=O)C[C@@](O)(C(=O)CO)C[C@@H]3O[C@H]1C[C@H](N)[C@H](O)[C@H](C)O1 [DOXORUBICIN]	
80	9	51	20	20	34	5	CC(=O)c1ccc2c(c1)c1cc(C(C)=O)ccc1n2CCNC(C)C	
